Laboratory results from publication PMC5218480 (PLoS ONE, 2017).

Tested on: MV-4-11 cells
Assay: Gene expression microarray analysis (Affymetrix PrimeView) and GSEA
Type: cell-based, human
Design: RFU PODN (11730768_x_at) / Fold change /veh PODN (11730768_x_at) / RFU LINC00158 (11744669_a_at) / Fold change /veh LINC00158 (11744669_a_at) / RFU DUSP10 (11751237_a_at) / Fold change /veh DUSP10 (11751237_a_at) / RFU ID3 (11757404_x_at) / Fold change /veh ID3 (11757404_x_at) / RFU PLEKHG5 (11737974_s_at) / Fold change /veh PLEKHG5 (11737974_s_at) / RFU LRRC4B (11730491_at) / Fold change /veh LRRC4B (11730491_at) / RFU GIMAP4 (11747438_a_at) / Fold change /veh GIMAP4 (11747438_a_at) / RFU KRT8 (11758183_x_at) / Fold change /veh KRT8 (11758183_x_at) / RFU CNN1 (11734310_a_at) / Fold change /veh CNN1 (11734310_a_at) / RFU VPS37D (11726825_at) / Fold change /veh VPS37D (11726825_at) / RFU C10orf10 (11716522_x_at) / Fold change /veh C10orf10 (11716522_x_at) / RFU KIR2DL2 /// KIR2DL4 /// KIR2DL5A /// KIR2DL5B /// KIR2DS1 /// KIR2DS2 /// KIR2DS3 /// KIR2DS4 /// KIR3DL3 /// KIR3DL3 /// KIR3DS1 (11738374_at) / Fold change /veh KIR2DL2 /// KIR2DL4 /// KIR2DL5A /// KIR2DL5B /// KIR2DS1 /// KIR2DS2 /// KIR2DS3 /// KIR2DS4 /// KIR3DL3 /// KIR3DL3 /// KIR3DS1 (11738374_at) / RFU C1QL1 (11718748_at) / Fold change /veh C1QL1 (11718748_at) / RFU TMPRSS4 (11747572_a_at) / Fold change /veh TMPRSS4 (11747572_a_at) / RFU HAMP (11756126_x_at) / Fold change /veh HAMP (11756126_x_at) / RFU RNFT2 (11725882_a_at) / Fold change /veh RNFT2 (11725882_a_at) / RFU NR4A2 (11747474_a_at) / Fold change /veh NR4A2 (11747474_a_at) / RFU ABCC12 (11746883_a_at) / Fold change /veh ABCC12 (11746883_a_at) / RFU TMEM136 (11760407_x_at) / Fold change /veh TMEM136 (11760407_x_at) / RFU CLDN22 /// WWC2 (11732394_at) / Fold change /veh CLDN22 /// WWC2 (11732394_at) / RFU HLA-DPB1 (11760878_x_at) / Fold change /veh HLA-DPB1 (11760878_x_at) / RFU SPINT1 (11716480_a_at) / Fold change /veh SPINT1 (11716480_a_at) / RFU GAP43 (11754022_s_at) / Fold change /veh GAP43 (11754022_s_at) / RFU A4GNT (11735810_at) / Fold change /veh A4GNT (11735810_at) / RFU PRB3 (11715151_x_at) / Fold change /veh PRB3 (11715151_x_at) / RFU TUBB4B (11761932_at) / Fold change /veh TUBB4B (11761932_at) / RFU CAPN14 (11732068_a_at) / Fold change /veh CAPN14 (11732068_a_at) / RFU TMCC2 (11721928_a_at) / Fold change /veh TMCC2 (11721928_a_at) / RFU IRGQ (11745062_a_at) / Fold change /veh IRGQ (11745062_a_at) / RFU FAM174B (11720279_a_at) / Fold change /veh FAM174B (11720279_a_at) / RFU TMPRSS4 (11748680_a_at) / Fold change /veh TMPRSS4 (11748680_a_at) / RFU FAM212B (11763350_a_at) / Fold change /veh FAM212B (11763350_a_at) / RFU PLEKHG5 (11743358_a_at) / Fold change /veh PLEKHG5 (11743358_a_at) / RFU ZSCAN30 (11745921_a_at) / Fold change /veh ZSCAN30 (11745921_a_at) / RFU CMKLR1 (11741424_a_at) / Fold change /veh CMKLR1 (11741424_a_at) / RFU LOC101060620 /// MAPK8IP1 (11723275_at) / Fold change /veh LOC101060620 /// MAPK8IP1 (11723275_at) / RFU SPTSSB (11747773_x_at) / Fold change /veh SPTSSB (11747773_x_at) / RFU PRSS12 (11739890_at) / Fold change /veh PRSS12 (11739890_at) / RFU BIN1 (11741810_x_at) / Fold change /veh BIN1 (11741810_x_at) / RFU WNT11 (11732464_a_at) / Fold change /veh WNT11 (11732464_a_at) / RFU C10orf10 (11716521_a_at) / Fold change /veh C10orf10 (11716521_a_at) / RFU C5orf56 (11738089_at) / Fold change /veh C5orf56 (11738089_at) / RFU CYB561 (11721691_x_at) / Fold change /veh CYB561 (11721691_x_at) / RFU ANKRD19P (11752326_a_at) / Fold change /veh ANKRD19P (11752326_a_at) / RFU OR2T12 /// OR2T33 /// OR2T8 (11738714_s_at) / Fold change /veh OR2T12 /// OR2T33 /// OR2T8 (11738714_s_at) / RFU VCAN (11748164_a_at) / Fold change /veh VCAN (11748164_a_at) / RFU JSRP1 (11732532_at) / Fold change /veh JSRP1 (11732532_at) / RFU KRTAP10-11 (11738290_x_at) / Fold change /veh KRTAP10-11 (11738290_x_at) / RFU MYO3A (11730013_a_at) / Fold change /veh MYO3A (11730013_a_at) / RFU EBF3 (11725865_a_at) / Fold change /veh EBF3 (11725865_a_at) / RFU CAMK2N1 (11719241_x_at) / Fold change /veh CAMK2N1 (11719241_x_at) / RFU C5orf56 (11738088_a_at) / Fold change /veh C5orf56 (11738088_a_at) / RFU OLFML3 (11715873_a_at) / Fold change /veh OLFML3 (11715873_a_at) / RFU LOC100653217 /// NTM (11731650_a_at) / Fold change /veh LOC100653217 /// NTM (11731650_a_at) / RFU MAPK11 (11762145_a_at) / Fold change /veh MAPK11 (11762145_a_at) / RFU FIZ1 (11724087_x_at) / Fold change /veh FIZ1 (11724087_x_at) / RFU OASL (11726364_x_at) / Fold change /veh OASL (11726364_x_at) / RFU SOX15 (11748057_x_at) / Fold change /veh SOX15 (11748057_x_at) / RFU CD79A (11719716_a_at) / Fold change /veh CD79A (11719716_a_at) / RFU HIST1H1D (11736915_at) / Fold change /veh HIST1H1D (11736915_at) / RFU CASKIN2 (11723855_a_at) / Fold change /veh CASKIN2 (11723855_a_at) / RFU LOC730098 (11760151_x_at) / Fold change /veh LOC730098 (11760151_x_at) / RFU OR4N2 (11742367_at) / Fold change /veh OR4N2 (11742367_at) / RFU PRRT2 (11749266_a_at) / Fold change /veh PRRT2 (11749266_a_at) / RFU SNX32 (11753110_a_at) / Fold change /veh SNX32 (11753110_a_at) / RFU CDHR5 (11726645_a_at) / Fold change /veh CDHR5 (11726645_a_at) / RFU RCAN1 (11760418_a_at) / Fold change /veh RCAN1 (11760418_a_at) / RFU FAM167A (11723789_a_at) / Fold change /veh FAM167A (11723789_a_at) / RFU FAM26E (11764081_at) / Fold change /veh FAM26E (11764081_at) / RFU ISYNA1 (11749810_s_at) / Fold change /veh ISYNA1 (11749810_s_at) / RFU ACY1 (11761880_at) / Fold change /veh ACY1 (11761880_at) / RFU 11764098_at / Fold change /veh 11764098_at / RFU SAMD14 (11745864_x_at) / Fold change /veh SAMD14 (11745864_x_at) / RFU NPB (11741838_a_at) / Fold change /veh NPB (11741838_a_at) / RFU TMPRSS6 (11731388_a_at) / Fold change /veh TMPRSS6 (11731388_a_at) / RFU KRTAP10-2 (11738614_at) / Fold change /veh KRTAP10-2 (11738614_at) / RFU ARHGAP8 /// PRR5-ARHGAP8 (11727945_x_at) / Fold change /veh ARHGAP8 /// PRR5-ARHGAP8 (11727945_x_at) / RFU KRTAP5-7 /// NADSYN1 (11734609_at) / Fold change /veh KRTAP5-7 /// NADSYN1 (11734609_at) / RFU RASL12 (11751679_a_at) / Fold change /veh RASL12 (11751679_a_at) / RFU CDKN2B (11736163_a_at) / Fold change /veh CDKN2B (11736163_a_at) / RFU PRF1 (11729649_at) / Fold change /veh PRF1 (11729649_at) / RFU, ZNF638 /// ZNF638-IT1 / Fold change vs veh, ZNF638 /// ZNF638-IT1 / RFU, PANK3 / Fold change vs veh, PANK3 / RFU, SH3YL1 / Fold change vs veh, SH3YL1 / RFU, ZEB2 / Fold change vs veh, ZEB2 / RFU, NRIP1 / Fold change vs veh, NRIP1 / RFU, PTTG1IP / Fold change vs veh, PTTG1IP / RFU, CAPN2 / Fold change vs veh, CAPN2 / RFU, MED14 / Fold change vs veh, MED14 / RFU, SNORA58 / Fold change vs veh, SNORA58 / RFU, C1orf63 / Fold change vs veh, C1orf63 / RFU, LRRFIP1 / Fold change vs veh, LRRFIP1 / RFU, NDUFAF7 / Fold change vs veh, NDUFAF7 / RFU, SLC12A2 / Fold change vs veh, SLC12A2 / RFU, IBTK / Fold change vs veh, IBTK / RFU, ESF1 / Fold change vs veh, ESF1 / Fold change vs veh, TMEM50B / RFU, TAOK1 / Fold change vs veh, TAOK1 / RFU, ACBD3 / Fold change vs veh, ACBD3 / RFU, TMA16 / Fold change vs veh, TMA16 / RFU, RWDD3 / Fold change vs veh, RWDD3 / RFU, BCAT1 / Fold change vs veh, BCAT1 / RFU, EDEM3 / Fold change vs veh, EDEM3 / RFU, TMEM33 / Fold change vs veh, TMEM33 / RFU, WDR75 / Fold change vs veh, WDR75 / RFU, AHCTF1 / Fold change vs veh, AHCTF1 / RFU, TFRC / Fold change vs veh, TFRC / RFU, ZDHHC17 / Fold change vs veh, ZDHHC17 / RFU, NOM1 / Fold change vs veh, NOM1 / RFU, ARL8B / Fold change vs veh, ARL8B / RFU, ZBTB11 / Fold change vs veh, ZBTB11 / RFU, TAMM41 / Fold change vs veh, TAMM41 / RFU, KIAA1704 /// LOC100996395 / Fold change vs veh, KIAA1704 /// LOC100996395 / RFU, ING1 / Fold change vs veh, ING1 / RFU, TRMT61B / Fold change vs veh, TRMT61B / RFU, FUBP3 / Fold change vs veh, FUBP3 / RFU, TP53 / Fold change vs veh, TP53 / RFU, TNKS2 / Fold change vs veh, TNKS2 / RFU, ZFP14 / Fold change vs veh, ZFP14 / RFU, ACTR2 / Fold change vs veh, ACTR2 / RFU, PPP3R1 / Fold change vs veh, PPP3R1 / RFU, PIK3R1 / Fold change vs veh, PIK3R1 / RFU, HNRNPA1 / Fold change vs veh, HNRNPA1 / RFU, RNF170 / Fold change vs veh, RNF170 / RFU, ZNF28 / Fold change vs veh, ZNF28 / RFU, RNGTT / Fold change vs veh, RNGTT / RFU, OGT / Fold change vs veh, OGT / RFU, BRD1 / Fold change vs veh, BRD1 / RFU, MARS / Fold change vs veh, MARS / RFU, ZNF655 / Fold change vs veh, ZNF655 / RFU, FAHD1 / Fold change vs veh, FAHD1 / RFU, BDP1 / Fold change vs veh, BDP1 / RFU, LRRCC1 / Fold change vs veh, LRRCC1 / RFU, ARID1A / Fold change vs veh, ARID1A / RFU, ZNF146 / Fold change vs veh, ZNF146 / RFU, ZNF330 / Fold change vs veh, ZNF330 / RFU, GPN3 / Fold change vs veh, GPN3 / RFU, C9orf123 / Fold change vs veh, C9orf123 / RFU, N4BP2L2 / Fold change vs veh, N4BP2L2 / RFU, ARFIP1 / Fold change vs veh, ARFIP1 / RFU, FAM179B / Fold change vs veh, FAM179B / RFU, BCL10 / Fold change vs veh, BCL10 / RFU, UHRF1BP1L / Fold change vs veh, UHRF1BP1L / RFU, BET1 / Fold change vs veh, BET1 / RFU, CNOT2 / Fold change vs veh, CNOT2 / RFU, ZNF268 / Fold change vs veh, ZNF268 / Fold change vs veh, ZNF507 / RFU, DGCR2 / Fold change vs veh, DGCR2 / RFU, WDSUB1 / Fold change vs veh, WDSUB1 / Fold change vs veh, HSP90B1 /// MIR3652 / RFU, ADSS / Fold change vs veh, ADSS / RFU, GK / Fold change vs veh, GK / RFU, ZNF148 / Fold change vs veh, ZNF148 / RFU, TAF9 / Fold change vs veh, TAF9 / RFU, SLC1A5 / Fold change vs veh, SLC1A5 / RFU, SLMO2 / Fold change vs veh, SLMO2 / RFU, ABCC4 / Fold change vs veh, ABCC4 / RFU, LOC101060439 /// RAP1B / Fold change vs veh, LOC101060439 /// RAP1B / RFU, RFX7 / Fold change vs veh, RFX7 / RFU, GTPBP10 / Fold change vs veh, GTPBP10 / RFU, CNEP1R1 / Fold change vs veh, CNEP1R1 / RFU, BIVM-ERCC5 /// ERCC5 / Fold change vs veh, BIVM-ERCC5 /// ERCC5 / RFU, ILF3 / Fold change vs veh, ILF3 / RFU 11762660_at / Fold change /veh 11762660_at / RFU VCAN (11757783_s_at) / Fold change /veh VCAN (11757783_s_at) / RFU DDX43 (11728927_at) / Fold change /veh DDX43 (11728927_at) / RFU KRT8 (11758188_x_at) / Fold change /veh KRT8 (11758188_x_at) / RFU NKD1 (11759106_at) / Fold change /veh NKD1 (11759106_at) / RFU SRD5A1 (11742802_a_at) / Fold change /veh SRD5A1 (11742802_a_at) / RFU TPSAB1 /// TPSB2 (11721975_s_at) / Fold change /veh TPSAB1 /// TPSB2 (11721975_s_at) / RFU GSTM3 (11746129_a_at) / Fold change /veh GSTM3 (11746129_a_at) / RFU IL23R (11737362_x_at) / Fold change /veh IL23R (11737362_x_at) / RFU TMEM51 (11727254_a_at) / Fold change /veh TMEM51 (11727254_a_at) / RFU PIWIL2 (11732686_x_at) / Fold change /veh PIWIL2 (11732686_x_at) / RFU ORM1 (11744905_x_at) / Fold change /veh ORM1 (11744905_x_at) / RFU CCDC152 (11743942_at) / Fold change /veh CCDC152 (11743942_at) / RFU ECM1 (11717891_a_at) / Fold change /veh ECM1 (11717891_a_at) / RFU IL23R (11748794_a_at) / Fold change /veh IL23R (11748794_a_at) / RFU TNFAIP8L3 (11732012_x_at) / Fold change /veh TNFAIP8L3 (11732012_x_at) / RFU MBOAT4 (11741988_at) / Fold change /veh MBOAT4 (11741988_at) / RFU 11764193_at / Fold change /veh 11764193_at / RFU TMEM53 (11763286_at) / Fold change /veh TMEM53 (11763286_at) / RFU MAGEB2 (11727129_at) / Fold change /veh MAGEB2 (11727129_at) / RFU TMEM200A (11744735_a_at) / Fold change /veh TMEM200A (11744735_a_at) / RFU CCDC152 (11751479_a_at) / Fold change /veh CCDC152 (11751479_a_at) / RFU FAM211A (11726209_a_at) / Fold change /veh FAM211A (11726209_a_at) / RFU RGS16 (11746705_a_at) / Fold change /veh RGS16 (11746705_a_at) / RFU VCAN (11755009_s_at) / Fold change /veh VCAN (11755009_s_at) / RFU RHOB (11743442_s_at) / Fold change /veh RHOB (11743442_s_at) / RFU RGS16 (11720943_a_at) / Fold change /veh RGS16 (11720943_a_at) / RFU RGS16 (11720944_at) / Fold change /veh RGS16 (11720944_at) / RFU, VPS4B / Fold change vs veh, VPS4B / RFU, CREB1 / Fold change vs veh, CREB1 / RFU, DNAJC13 / Fold change vs veh, DNAJC13 / RFU, GNAQ / Fold change vs veh, GNAQ / RFU, CDK5R1 / Fold change vs veh, CDK5R1 / RFU, ZRANB3 / Fold change vs veh, ZRANB3 / RFU, CUL4A / Fold change vs veh, CUL4A / RFU, CCNY / Fold change vs veh, CCNY / RFU, UFL1 / Fold change vs veh, UFL1 / RFU, COG3 / Fold change vs veh, COG3 / RFU, DIAPH2 / Fold change vs veh, DIAPH2 / RFU, SKA2 / Fold change vs veh, SKA2 / RFU, AFF3 / Fold change vs veh, AFF3 / RFU, LMF1 / Fold change vs veh, LMF1 / RFU, IPO11 / Fold change vs veh, IPO11 / RFU, DFFB / Fold change vs veh, DFFB / RFU, FOXP1 / Fold change vs veh, FOXP1 / RFU, CARD8 / Fold change vs veh, CARD8 / RFU, STRN3 / Fold change vs veh, STRN3 / RFU, ADK / Fold change vs veh, ADK / RFU, RASSF2 / Fold change vs veh, RASSF2 / RFU, WIPF1 / Fold change vs veh, WIPF1 / RFU, LARP1B / Fold change vs veh, LARP1B / RFU, RASA1 / Fold change vs veh, RASA1 / RFU, RB1 / Fold change vs veh, RB1 / RFU, PPFIA1 / Fold change vs veh, PPFIA1 / RFU, MAT2A / Fold change vs veh, MAT2A / RFU, CCT5 / Fold change vs veh, CCT5 / RFU, WDR92 / Fold change vs veh, WDR92 / RFU, CUX1 / Fold change vs veh, CUX1 / RFU, TTC7A / Fold change vs veh, TTC7A / RFU, TMEM135 / Fold change vs veh, TMEM135 / RFU, DEPTOR / Fold change vs veh, DEPTOR / RFU, CPM / Fold change vs veh, CPM / RFU, DNAJB6 / Fold change vs veh, DNAJB6 / RFU, CACNA2D3 / Fold change vs veh, CACNA2D3 / RFU, DTX4 / Fold change vs veh, DTX4 / RFU, TFCP2 / Fold change vs veh, TFCP2 / RFU, GMCL1 /// GMCL1P1 / Fold change vs veh, GMCL1 /// GMCL1P1 / RFU, AEBP2 / Fold change vs veh, AEBP2 / RFU, SNHG1 /// SNORD22 /// SNORD25 /// SNORD26 /// SNORD27 /// SNORD28 /// SNORD29 /// SNORD31 / Fold change vs veh, SNHG1 /// SNORD22 /// SNORD25 /// SNORD26 /// SNORD27 /// SNORD28 /// SNORD29 /// SNORD31 / Fold change (Aza/veh), C12orf56 (ProbeSet 11735607_a_at) / Fold change (ACY-1035/veh), C12orf56 (ProbeSet 11735607_a_at) / Fold change (Aza/veh), FGFR1OP (ProbeSet 11751329_s_at) / Fold change (ACY-1035/veh), FGFR1OP (ProbeSet 11751329_s_at) / Fold change (Aza/veh), VPS36 (ProbeSet 11739960_a_at) / Fold change (ACY-1035/veh), VPS36 (ProbeSet 11739960_a_at) / RFU SYPL1 (11715823_x_at) / Fold change /veh SYPL1 (11715823_x_at) / RFU IGFBP7 (11715501_s_at) / Fold change /veh IGFBP7 (11715501_s_at) / RFU REEP3 (11722064_at) / Fold change /veh REEP3 (11722064_at) / RFU IGLL1 (11728026_x_at) / Fold change /veh IGLL1 (11728026_x_at): dose or concentration left out as unconfirmed
Conditions: ProbeSet 11759095_at; LIST D

## Nc1ncn([C@@H]2O[C@H](CO)[C@@H](O)[C@H]2O)c(=O)n1 [azacitidine]
  RFU, GNAQ: 765.32 RFU
